Drawing on ChEMBL document CHEMBL4393667, “Discovery of [1,2,4]Triazolo[4,3- a]pyridines as Potent Inhibitors Targeting the Programmed Cell Death-1/Programmed Cell Death-Ligand 1 Interaction” (J Med Chem, 2019), this text covers IC50 and inhibition for 31 molecules.

In assay [1] the target is T1, Programmed cell death protein 1/Programmed cell death 1 ligand 1 (Homo sapiens, UniProt Q15116+Q9NZQ7). As to the kind of experiment: Inhibition of human PD1/PDL1 protein-protein interaction after 15 mins by HTRF assay. Type of assay: protein-complex assay. (In TR-FRET formats the signal depends on donor and acceptor labels being close together.)
For assay [2], the target named is T1, Programmed cell death protein 1/Programmed cell death 1 ligand 1. Kind of assay: Inhibition of human PD1/PDL1 protein-protein interaction in human PBMC-derived CD3-positive T cells co-cultured with human Hep3B cells expressing PDL1/OS-8 assessed as increase in IFNgamma secretion measured after 3 days.

The term IC50 denotes the midpoint of a concentration-inhibition curve. A low value points to inhibition by little substance.

T1 sequence (Q15116 whole entry): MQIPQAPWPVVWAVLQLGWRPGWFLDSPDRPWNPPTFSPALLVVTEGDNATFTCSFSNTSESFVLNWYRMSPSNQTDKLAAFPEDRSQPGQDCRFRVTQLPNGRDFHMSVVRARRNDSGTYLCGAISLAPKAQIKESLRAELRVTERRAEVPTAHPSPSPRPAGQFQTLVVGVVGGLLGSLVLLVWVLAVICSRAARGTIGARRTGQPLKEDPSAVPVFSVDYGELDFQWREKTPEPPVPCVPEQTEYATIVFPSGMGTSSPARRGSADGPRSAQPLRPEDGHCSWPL
T1 sequence (Q9NZQ7 whole entry): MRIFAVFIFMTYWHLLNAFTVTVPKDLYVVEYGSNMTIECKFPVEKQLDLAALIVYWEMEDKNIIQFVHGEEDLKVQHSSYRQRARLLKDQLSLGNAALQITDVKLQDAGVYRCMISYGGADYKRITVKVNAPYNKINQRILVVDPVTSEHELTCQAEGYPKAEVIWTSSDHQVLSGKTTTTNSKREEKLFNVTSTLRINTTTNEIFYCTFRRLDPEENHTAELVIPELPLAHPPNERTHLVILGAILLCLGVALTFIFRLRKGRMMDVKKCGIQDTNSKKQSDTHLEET

As to `CS(=O)(=O)NCCNCc1cc(C(=O)Nc2cccc(-c3ccc4c(c3)OCCO4)c2C#N)c2nncn2c1`, the IC50 in assay [1] came out at 983 nM. This counts as sub-micromolar. On the same count and under the same terms, the same measure for `CC(=O)NCCNCc1cc(C(=O)Nc2cccc(-c3ccc4c(c3)OCCO4)c2C)c2nncn2c1`: 566 nM; for `Cc1c(NC(=O)c2ccc(CN(C)CCO)n3cnnc23)cccc1-c1ccccc1`: more than 10000 nM; for `Cc1c(NC(=O)c2cc(CN[C@H](CO)C(=O)O)cn3cnnc23)cccc1-c1ccccc1`: 5570 nM. Same read-out and setting: next, `Cc1c(NC(=O)c2ccc(CNCCO)n3cnnc23)cccc1-c1ccccc1`: more than 10000 nM; `Cc1c(NC(=O)c2cc(CNCCO)cn3c(C)nnc23)cccc1-c1ccccc1`: more than 10000 nM; `Cc1c(NC(=O)c2cc(CNCCNS(C)(=O)=O)cn3cnnc23)cccc1-c1ccc2c(c1)OCCO2`: 988 nM.

Take `CC(=O)NCCNCc1cc(C(=O)Nc2cccc(-c3ccccc3)c2C)c2nncn2c1`: half-maximal inhibition in assay [1] (IC50) required 1490 nM. The same measure, in the same setting: the same measure for `COC(=O)CNCc1cc(C(=O)Nc2cccc(-c3ccccc3)c2C)c2nncn2c1`: more than 10000 nM; for `Cc1c(NC(=O)c2cc(CN3CCN(C)CC3)cn3cnnc23)cccc1-c1ccccc1`: 1350 nM; for `CN(Cc1cc(C(=O)Nc2cccc(-c3ccc4c(c3)OCCO4)c2C#N)c2nncn2c1)CC(O)CO` (stereo unspecified): 486 nM. In turn, `COC(=O)[C@@H](CO)NCc1cc(C(=O)Nc2cccc(-c3ccccc3)c2C)c2nncn2c1` had an IC50 in assay [1] of more than 10000 nM. The same measure, in the same setting: next, `Cc1c(NC(=O)c2cc(CN[C@H]3CC[C@H](O)CC3)cn3cnnc23)cccc1-c1ccccc1`: 968 nM. The same measure, in the same setting: the same measure for `Cc1c(NC(=O)c2cc(CNCCS(N)(=O)=O)cn3cnnc23)cccc1-c1ccc2c(c1)OCCO2`: 3690 nM.

For `CC(=O)NCCNCc1ccc(C(=O)Nc2cccc(-c3ccccc3)c2C)c2nncn12`, in assay [1], the IC50 was more than 10000 nM. The same measure, in the same setting: the same measure for `Cc1c(NC(=O)c2cc(CN3CCN(C)CC3)cn3c(C)nnc23)cccc1-c1ccccc1`: more than 10000 nM; for `Cc1c(NC(=O)c2cc(CN3CCCC[C@H]3C(=O)O)cn3cnnc23)cccc1-c1ccccc1`: 5130 nM. For the molecule `Cc1c(NC(=O)c2cc(CN(C)CCO)cn3ccnc23)cccc1-c1ccccc1`, the IC50 in assay [1] was more than 10000 nM.

In assay [1], `Cc1c(NC(=O)c2cc(CNCCO)cn3cnnc23)cccc1-c1ccccc1` had an IC50 of 733 nM. In other words, the sub-micromolar range. Consider `Cc1c(NC(=O)c2cc(CNCCO)cn3cnnc23)cccc1-c1ccc2c(c1)OCCO2`, for which the inhibition entry in assay [2] was “Dose-dependent effect”.

`Cc1c(NC(=O)c2cc(CN(C)CCO)cn3cnnc23)cccc1-c1ccccc1`: half-maximal inhibition in assay [1] (IC50) was put at 755 nM. That is a sub-micromolar value. The same measure, in the same setting: next, `Cc1c(NC(=O)c2cc(CN(C)CC(O)CO)cn3cnnc23)cccc1-c1ccccc1` (stereo unspecified): 375 nM. On the same count and under the same terms, the same measure for `CC(=O)NCCNCc1cc(C(=O)Nc2cccc(-c3ccc4c(c3)OCCO4)c2C#N)c2nncn2c1`: 367 nM; for `Cc1c(NC(=O)c2cc(CN(C)CC(O)CO)cn3cnnc23)cccc1-c1ccc2c(c1)OCCO2` (stereo unspecified): 474 nM; for `COC(=O)[C@@H]1CCCCN1Cc1cc(C(=O)Nc2cccc(-c3ccccc3)c2C)c2nncn2c1`: more than 10000 nM. Same read-out and setting: the same measure for `Cc1c(NC(=O)c2cc(CN(C)CCO)cn3cnnc23)cccc1-c1ccc2c(c1)OCCO2`: 238 nM; for `N#Cc1c(NC(=O)c2cc(CNCCO)cn3cnnc23)cccc1-c1ccc2c(c1)OCCO2`: 275 nM. In turn, `Cc1c(NC(=O)c2cc(CNCCS(N)(=O)=O)cn3cnnc23)cccc1-c1ccccc1` had an IC50 in assay [1] of 834 nM. In assay [1], `CC(=O)NCCNCc1cc(C(=O)Nc2cccc(-c3ccccc3)c2C)c2nccn2c1` registered an IC50 of more than 10000 nM. The same measure, in the same setting: next, `Cc1c(NC(=O)c2cc(CNCC(N)=O)cn3cnnc23)cccc1-c1ccccc1`: 2940 nM; `Cc1c(NC(=O)c2cc(CNCCO)cn3ccnc23)cccc1-c1ccccc1`: more than 10000 nM.
